Several values for one entry are separate records, joined by “and”; a condition that tells them apart may be missing. Equal values may be shown once. Inconclusive results and toxic doses are left out.
Tested on: P388 leukemia ip, CD2F1 mice, survival T/C
Test: NCI In Vivo Anticancer Drug Screen. Data for tumor model P388 Leukemia (intraperitoneal) in CD2F1 (CDF1) mice
Conditions: endpoint: median survival time, higher = longer survival
In short: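 Mice carrying the transplanted tumor received test compound or vehicle. Survival was recorded in each group, and the value is the treated-group measurement divided by that of the vehicle-treated control group.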

[1] = dose: 60.0 mg/kg/injection, schedule: Q01DX005 (ip), vehicle: saline with Tween-80
[2] = dose: 120.0 mg/kg/injection, schedule: Q01DX005 (ip), vehicle: saline with Tween-80
[3] = dose: 240.0 mg/kg/injection, schedule: Q01DX005 (ip), vehicle: saline with Tween-80
[4] = dose: 6.25 mg/kg/injection, schedule: Q01DX009 (ip), vehicle: Klucel (hydroxypropylcellulose) (HPC)
[5] = dose: 12.5 mg/kg/injection, schedule: Q01DX009 (ip), vehicle: Klucel (hydroxypropylcellulose) (HPC)
[6] = dose: 50.0 mg/kg/injection, schedule: Q01DX009 (ip), vehicle: Klucel (hydroxypropylcellulose) (HPC)
[7] = dose: 50.0 mg/kg/injection, schedule: Q01DX005 (ip), vehicle: Klucel (hydroxypropylcellulose) (HPC)
[8] = dose: 100.0 mg/kg/injection, schedule: Q01DX005 (ip), vehicle: Klucel (hydroxypropylcellulose) (HPC)
[9] = dose: 200.0 mg/kg/injection, schedule: Q01DX005 (ip), vehicle: Klucel (hydroxypropylcellulose) (HPC)
[10] = dose: 50.0 mg/kg/injection, schedule: Q01DX005 (ip), vehicle: saline
[11] = dose: 100.0 mg/kg/injection, schedule: Q01DX009 (ip), vehicle: Klucel (hydroxypropylcellulose) (HPC)
[12] = dose: 200.0 mg/kg/injection, schedule: Q01DX009 (ip), vehicle: Klucel (hydroxypropylcellulose) (HPC)
[13] = dose: 100.0 mg/kg/injection, schedule: Q04DX002 (ip), vehicle: Klucel (hydroxypropylcellulose) (HPC)
[14] = dose: 400.0 mg/kg/injection, schedule: Q04DX002 (ip), vehicle: Klucel (hydroxypropylcellulose) (HPC)
[15] = dose: 25.0 mg/kg/injection, schedule: Q01DX009 (ip), vehicle: Klucel (hydroxypropylcellulose) (HPC)

CCN1C(=O)C2C3C=CC(C2C1=O)C1C2C(=O)N(CC)C(=O)C2C31 (stereo unspecified)
T/C (dose: 100.0 mg/kg/injection, schedule: Q01DX001 (ip), vehicle: suspension in saline): 99 % of control | T/C (dose: 200.0 mg/kg/injection, schedule: Q01DX001 (ip), vehicle: suspension in saline): 96 % of control | T/C (dose: 400.0 mg/kg/injection, schedule: Q01DX001 (ip), vehicle: suspension in saline): 100 % of control

CNC(=O)N1CCOC1c1ccc(NC(=O)OC)cc1 (stereo unspecified)
T/C [1]: 96 % of control | T/C [2]: 90 % of control | T/C [3]: 95 % of control

COC(C)C(Br)C(=O)NN=C(c1ccccc1)c1ccccc1 (stereo unspecified)
T/C (dose: 100.0 mg/kg/injection, schedule: Q04DX003 (ip), vehicle: saline): 95 % of control | T/C (dose: 200.0 mg/kg/injection, schedule: Q04DX003 (ip), vehicle: saline): 93 % of control | T/C (dose: 400.0 mg/kg/injection, schedule: Q04DX003 (ip), vehicle: saline): 95 % of control

CCC(c1ccc(C(C)=O)c(O)c1)C(CC)c1ccc(C(C)=O)c(O)c1 (stereo unspecified)
T/C [1]: 97 % of control | T/C [2]: 90 % of control | T/C [3]: 88 % of control

CN(c1ccccc1)c1cc2nc3ccccc3nc2cc1O
T/C (dose: 50.0 mg/kg/injection, schedule: Q01DX009 (ip), vehicle: saline): 98 % of control | T/C (dose: 100.0 mg/kg/injection, schedule: Q01DX009 (ip), vehicle: saline): 91 % of control

CS(=O)(=O)OCCN(CCOS(C)(=O)=O)c1cccc(C(F)(F)F)c1
T/C (dose: 0.75 mg/kg/injection, schedule: Q04DX003 (ip), vehicle: saline): 100 % of control | T/C (dose: 1.5 mg/kg/injection, schedule: Q04DX003 (ip), vehicle: saline): 100 % of control | T/C (dose: 3.0 mg/kg/injection, schedule: Q04DX003 (ip), vehicle: saline): 100 % of control | T/C (dose: 25.0 mg/kg/injection, schedule: Q04DX003 (ip), vehicle: saline with Tween-80): 170 % of control and 212 % of control | T/C (dose: 50.0 mg/kg/injection, schedule: Q01DX009 (ip), vehicle: saline with Tween-80): 159 % of control | T/C (dose: 50.0 mg/kg/injection, schedule: Q04DX003 (ip), vehicle: saline with Tween-80): 216 % of control | T/C (dose: 100.0 mg/kg/injection, schedule: Q01DX009 (ip), vehicle: saline with Tween-80): 213 % of control | T/C (dose: 100.0 mg/kg/injection, schedule: Q04DX003 (ip), vehicle: saline with Tween-80): 87 % of control

COC(=O)c1cc(C)c(C)cc1NC1OC(CO)C(O)C1O (stereo unspecified)
T/C [1]: 101 % of control | T/C [2]: 95 % of control | T/C [3]: 97 % of control

C[C@H](N)C(=O)/C=C/c1ccccc1
T/C (dose: 10.0 mg/kg/injection, schedule: Q01DX005 (ip), vehicle: saline): 101 % of control | T/C (dose: 20.0 mg/kg/injection, schedule: Q01DX005 (ip), vehicle: saline): 100 % of control | T/C (dose: 40.0 mg/kg/injection, schedule: Q01DX005 (ip), vehicle: saline): 98 % of control

O=C1C=C(Cl)C(=O)C(c2ccc(Cl)cc2)=C1
T/C [4]: 100 % of control | T/C [5]: 96 % of control | T/C [6]: 92 % of control

COc1cc(-c2coc3cc(O)ccc3c2=O)c(O)c(OC)c1OC
T/C (dose: 100.0 mg/kg/injection, schedule: Q01DX001 (ip), vehicle: Klucel (hydroxypropylcellulose) (HPC)): 101 % of control | T/C (dose: 200.0 mg/kg/injection, schedule: Q01DX001 (ip), vehicle: Klucel (hydroxypropylcellulose) (HPC)): 101 % of control | T/C (dose: 400.0 mg/kg/injection, schedule: Q01DX001 (ip), vehicle: Klucel (hydroxypropylcellulose) (HPC)): 102 % of control

COc1ccc(N=N/N=c2\sc3cc(Cl)ccc3n2C)cc1
T/C (dose: 7.5 mg/kg/injection, schedule: Q01DX005 (ip), vehicle: saline with Tween-80): 115 % of control | T/C (dose: 15.0 mg/kg/injection, schedule: Q01DX005 (ip), vehicle: saline with Tween-80): 113 % of control and 121 % of control | T/C (dose: 30.0 mg/kg/injection, schedule: Q01DX005 (ip), vehicle: saline with Tween-80): 115 % of control and 124 % of control | T/C [1]: 112 % of control

Nc1ccc2cc(Cl)[nH]c(=O)c2c1
T/C [7]: 100 % of control | T/C [8]: 94 % of control | T/C [9]: 97 % of control

CC(C)(C)c1cc2c(O)c(c1)Cc1cc(C(C)(C)C)cc(c1O)Cc1cc(C(C)(C)C)cc(c1O)Cc1cc(C(C)(C)C)cc(c1O)C2
T/C [7]: 100 % of control | T/C [8]: 102 % of control | T/C [9]: 96 % of control

CC(C)(OC(=O)NC(CC(N)=O)C(=O)O)c1ccc(-c2ccccc2)cc1 (stereo unspecified)
T/C [7]: 98 % of control | T/C [8]: 104 % of control | T/C [9]: 90 % of control

CC(C)C(Nc1nncs1)Nc1nncs1
T/C [1]: 103 % of control | T/C [2]: 109 % of control | T/C [3]: 118 % of control

C=CCN(CC=C)CC(C)(O)CNc1cc(OC)cc2cccnc12 (stereo unspecified)
T/C [10]: 107 % of control | T/C (dose: 100.0 mg/kg/injection, schedule: Q01DX005 (ip), vehicle: saline): 101 % of control

CC(=O)n1nc(C)c(-c2onc3ccc(Cl)cc23)c1C
T/C [6]: 104 % of control | T/C [11]: 101 % of control | T/C [12]: 90 % of control

CCS1=C2C(=O)CCCC2=Nc2ccccc21 (stereo unspecified)
T/C (dose: 15.0 mg/kg/injection, schedule: Q01DX005 (ip), vehicle: saline): 100 % of control | T/C (dose: 30.0 mg/kg/injection, schedule: Q01DX005 (ip), vehicle: saline): 104 % of control | T/C [10]: 99 % of control | T/C (dose: 60.0 mg/kg/injection, schedule: Q01DX005 (ip), vehicle: saline): 92 % of control

CC(=NCCN=C(C)c1cc(C)ccc1O)c1cc(C)ccc1O
T/C [13]: 101 % of control | T/C (dose: 200.0 mg/kg/injection, schedule: Q04DX002 (ip), vehicle: Klucel (hydroxypropylcellulose) (HPC)): 100 % of control | T/C [14]: 99 % of control

COc1ccc2nc(-c3ccccc3)cc(N=[N+]=[N-])c2c1
T/C [1]: 100 % of control | T/C [2]: 97 % of control | T/C [3]: 102 % of control

Cc1cc(N/N=C/c2cccc3ccccc23)c2cc3c(cc2n1)OCO3
T/C (dose: 6.25 mg/kg/injection, schedule: Q01DX005 (ip), vehicle: Klucel (hydroxypropylcellulose) (HPC)): 95 % of control | T/C (dose: 12.5 mg/kg/injection, schedule: Q01DX005 (ip), vehicle: Klucel (hydroxypropylcellulose) (HPC)): 100 % of control | T/C (dose: 25.0 mg/kg/injection, schedule: Q01DX005 (ip), vehicle: Klucel (hydroxypropylcellulose) (HPC)): 112 % of control

C[C@]12CCC(=O)C(O)=C1CC[C@@H]1[C@@H]2CC[C@]2(C)C(=O)CC[C@@H]12
T/C [5]: 111 % of control and 96 % of control | T/C [15]: 100 % of control and 111 % of control | T/C [6]: 105 % of control and 106 % of control | T/C [11]: 92 % of control and 93 % of control | T/C [12]: 92 % of control and 96 % of control | T/C (dose: 400.0 mg/kg/injection, schedule: Q01DX009 (ip), vehicle: Klucel (hydroxypropylcellulose) (HPC)): 111 % of control and 88 % of control

Cn1c(=O)[nH]c(=O)c2nc(-c3ccccc3)cnc21
T/C [13]: 105 % of control | T/C [14]: 86 % of control

COC1=CC(=O)C(C2(OC(C)C)OC(=O)C(Cl)=C2Cl)=CC1=O (stereo unspecified)
T/C (dose: 50.0 mg/kg/injection, schedule: Q01DX005 (ip), vehicle: saline with Tween-80): 119 % of control | T/C (dose: 100.0 mg/kg/injection, schedule: Q01DX005 (ip), vehicle: saline with Tween-80): 111 % of control

c1ccc(-c2nc3cnccc3o2)cc1
T/C [4]: 103 % of control | T/C [5]: 105 % of control | T/C [15]: 114 % of control | T/C [6]: 112 % of control

OC1(Cc2ccc(F)cc2)CCCCCC1
T/C [7]: 102 % of control | T/C [8]: 105 % of control | T/C [9]: 103 % of control

NS(=O)(=O)c1ccc(N=Nc2c(O)n(-c3ccccc3)n(-c3ccccc3)c2=O)cc1
T/C (dose: 100.0 mg/kg/injection, schedule: Q04DX003 (ip), vehicle: Klucel (hydroxypropylcellulose) (HPC)): 107 % of control | T/C (dose: 200.0 mg/kg/injection, schedule: Q04DX003 (ip), vehicle: Klucel (hydroxypropylcellulose) (HPC)): 102 % of control | T/C (dose: 400.0 mg/kg/injection, schedule: Q04DX003 (ip), vehicle: Klucel (hydroxypropylcellulose) (HPC)): 102 % of control

N#CSC1=C(SC#N)C1(F)F
T/C (dose: 12.5 mg/kg/injection, schedule: Q04DX002 (ip), vehicle: Klucel (hydroxypropylcellulose) (HPC)): 100 % of control | T/C (dose: 25.0 mg/kg/injection, schedule: Q04DX002 (ip), vehicle: Klucel (hydroxypropylcellulose) (HPC)): 100 % of control | T/C (dose: 50.0 mg/kg/injection, schedule: Q04DX002 (ip), vehicle: Klucel (hydroxypropylcellulose) (HPC)): 104 % of control

Reference: PubChem BioAssay AID330 (DTP/NCI, 2004)
